Some test systems named below: LOX IMVI melanoma; MDA-MB-231 breast; HCT-15 colon; HL-60(TB) leukemia; EKVX NSCLC; UACC-257 melanoma; SK-OV-3 ovarian; OVCAR-4 ovarian; HCT-116 colon; NCI-H226 lung.
What all share (assay): inhibition of tumour cell growth, NCI panel, 48 h

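Growth conditions: 96-well plates. Treatment: test compound, 48 hours, 5 concentrations. Analysis: linear interpolation between bracketing concentrations; unreached endpoints set to highest concentration. At the GI50, growth is halved. Definition used: TGI = concentration required for complete inhibition of growth.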

For the compound `O=C1CCCSCCCC(=O)CCCSCCC1`, the TGI in the experiment with LOX IMVI melanoma, in the experiment with MDA-MB-231 breast, in the experiment on HCT-15 colon, in the experiment with HL-60(TB) leukemia, in the experiment on EKVX NSCLC and in the experiment with UACC-257 melanoma was above 100 µM throughout. The TGI with SK-OV-3 ovarian, in the experiment on OVCAR-4 ovarian and in the experiment with HCT-116 colon was above 100 µM in each case.
With `COc1cc(-c2cc(C(=O)Nc3nc4ccccc4s3)nc3cc(-c4ccccc4)nn23)cc(OC)c1OC`, the GI50 was 5.57 µM in the experiment on LOX IMVI melanoma; 5.63 µM in the experiment with MDA-MB-231 breast; above 100 µM in the experiment with HCT-15 colon; 42.9 µM in the experiment with EKVX NSCLC; 27.5 µM with NCI-H226 lung; 12.5 µM with SK-OV-3 ovarian. Moreover, the GI50 with OVCAR-4 ovarian is above 100 µM; with HCT-116 colon it was 4.51 µM. Moreover, the TGI was above 100 µM in the experiment with LOX IMVI melanoma; 69.2 µM in the experiment with MDA-MB-231 breast; above 100 µM in the experiment with HCT-15 colon; above 100 µM in the experiment with EKVX NSCLC; above 100 µM in the experiment with NCI-H226 lung; 27.9 µM in the experiment with SK-OV-3 ovarian. In addition, the TGI in the experiment with OVCAR-4 ovarian and with HCT-116 colon was above 100 µM throughout.
In the case of `Clc1ccc(Nc2ccnc(NCCNc3ccnc4cc(Cl)ccc34)n2)cc1`, the GI50 in the experiment with LOX IMVI melanoma was 1.29 µM; in the experiment on MDA-MB-231 breast it was 1.59 µM; in the experiment with HCT-15 colon it was 1.03 µM; with HL-60(TB) leukemia, 2.09 µM; with UACC-257 melanoma, 1.68 µM; in the experiment on SK-OV-3 ovarian, 1.44 µM. For the same compound, the GI50 is 1.03 µM in the experiment with OVCAR-4 ovarian and 0.522 µM in the experiment with HCT-116 colon. The TGI in the experiment with LOX IMVI melanoma was determined as 2.62 µM; in the experiment with MDA-MB-231 breast it was 3.31 µM; in the experiment with HCT-15 colon it was 2.36 µM; in the experiment with HL-60(TB) leukemia, 4.92 µM; in the experiment with UACC-257 melanoma it was 3.17 µM; in the experiment on SK-OV-3 ovarian, 2.76 µM. Also, the results for the TGI in the experiment with OVCAR-4 ovarian and in the experiment with HCT-116 colon were 2.31 µM and 2.12 µM, respectively.
As for `CCN(Cc1ccc(F)cc1F)c1ccc(CO)c(Cl)c1`, the GI50 was 14.4 µM in the experiment on LOX IMVI melanoma; 12.1 µM in the experiment with MDA-MB-231 breast; 11.2 µM in the experiment on HCT-15 colon; 8.47 µM in the experiment on HL-60(TB) leukemia; 0.0945 µM in the experiment on NCI-H226 lung; 0.128 µM with UACC-257 melanoma. Moreover, the GI50 with SK-OV-3 ovarian was 7.65 µM; in the experiment on OVCAR-4 ovarian, 0.218 µM; in the experiment with HCT-116 colon it was 0.0861 µM. Also, the TGI with LOX IMVI melanoma came to 29 µM; in the experiment on MDA-MB-231 breast it was 25.5 µM; with HCT-15 colon, 30.5 µM; in the experiment with HL-60(TB) leukemia, 38.1 µM; in the experiment on NCI-H226 lung, 0.219 µM; with UACC-257 melanoma, 0.372 µM. In addition, the figures for the TGI in the experiment with SK-OV-3 ovarian, in the experiment with OVCAR-4 ovarian and with HCT-116 colon were 22.1 µM, 1.65 µM and 12.5 µM, respectively.
`CC(C)(C)c1ccc(Oc2ccc(C#N)c(C#N)c2)c(C(C)(C)C)c1`: the TGI in the experiment with LOX IMVI melanoma was above 54.6 µM; in the experiment with HCT-15 colon, 31.3 µM; in the experiment on HL-60(TB) leukemia it was 32.3 µM; with EKVX NSCLC, above 100 µM; in the experiment with NCI-H226 lung, above 100 µM; with UACC-257 melanoma, above 100 µM. The TGI in the experiment with SK-OV-3 ovarian is above 100 µM; with OVCAR-4 ovarian, above 100 µM; in the experiment on HCT-116 colon it was above 60.1 µM.
Consider `O=P(Oc1ccccc1)(Oc1ccccc1)C(O)c1ccccc1` (configuration not stated), for which the GI50 with LOX IMVI melanoma is above 100 µM; in the experiment on MDA-MB-231 breast, 71.3 µM; in the experiment on HCT-15 colon it was above 100 µM; in the experiment with HL-60(TB) leukemia, 60.7 µM; in the experiment on EKVX NSCLC it was 26.5 µM; in the experiment on UACC-257 melanoma, 36.5 µM. In addition, the figures for the GI50 in the experiment on SK-OV-3 ovarian, in the experiment with OVCAR-4 ovarian and in the experiment on HCT-116 colon were above 100 µM, 58.2 µM and 65.9 µM, respectively. In addition, the TGI in the experiment with LOX IMVI melanoma, with MDA-MB-231 breast, with HCT-15 colon, in the experiment with HL-60(TB) leukemia, in the experiment on EKVX NSCLC and in the experiment on UACC-257 melanoma was above 100 µM throughout. For the same compound, the TGI in the experiment on SK-OV-3 ovarian, with OVCAR-4 ovarian and with HCT-116 colon was above 100 µM each time.
In the case of `CCCOP1(=O)C=C(C)C(Cl)=C(C)C1` (configuration not stated), the TGI in the experiment with LOX IMVI melanoma was 36.1 µM; with HCT-15 colon, 58.4 µM; with HL-60(TB) leukemia, 81.6 µM; with EKVX NSCLC it was above 100 µM; in the experiment with NCI-H226 lung, 52.2 µM; in the experiment with UACC-257 melanoma it was 45.7 µM. Further, the TGI is above 100 µM in the experiment with SK-OV-3 ovarian, 86.7 µM in the experiment with OVCAR-4 ovarian and 47.5 µM with HCT-116 colon.
Consider `N#CC12CCC(O)C(CC1)C2=O` (configuration not stated), for which the TGI with LOX IMVI melanoma is 39.3 µM; in the experiment with HCT-15 colon, above 100 µM; with HL-60(TB) leukemia, above 100 µM; in the experiment on EKVX NSCLC, above 100 µM; in the experiment with NCI-H226 lung, above 100 µM; in the experiment with UACC-257 melanoma it was above 100 µM. Moreover, the TGI with SK-OV-3 ovarian, in the experiment with OVCAR-4 ovarian and in the experiment with HCT-116 colon was above 100 µM in each case.
Consider `CCOC(=O)Oc1c(OC)cc(C(=O)c2ccc(OC)c(OC(=O)CCl)c2OC)cc1OC`, for which the GI50 was 0.677 µM with LOX IMVI melanoma; 1.9 µM in the experiment on MDA-MB-231 breast; 0.415 µM in the experiment with HCT-15 colon; 3.63 µM in the experiment on EKVX NSCLC; 4.38 µM with NCI-H226 lung; 66.6 µM with UACC-257 melanoma. For the same compound, the GI50 was 2.58 µM with SK-OV-3 ovarian, 6.34 µM in the experiment on OVCAR-4 ovarian and 0.494 µM with HCT-116 colon. Besides, the TGI is above 100 µM with LOX IMVI melanoma; above 100 µM in the experiment with MDA-MB-231 breast; above 100 µM in the experiment with HCT-15 colon; above 100 µM in the experiment with EKVX NSCLC; 37.9 µM with NCI-H226 lung; above 100 µM with UACC-257 melanoma. For the same compound, the TGI with SK-OV-3 ovarian was above 100 µM; in the experiment on OVCAR-4 ovarian, above 100 µM; with HCT-116 colon, 36.2 µM.
Regarding `COC(=O)C(=O)C(C(=O)C(=O)Nc1ccc([N+](=O)[O-])cc1[N+](=O)[O-])c1nc2ccc([N+](=O)[O-])cc2[nH]c1=O` (configuration not stated), the TGI in the experiment on LOX IMVI melanoma, in the experiment with HCT-15 colon, in the experiment with HL-60(TB) leukemia, in the experiment with EKVX NSCLC, with NCI-H226 lung and in the experiment with UACC-257 melanoma was above 100 µM throughout. The TGI with SK-OV-3 ovarian, with OVCAR-4 ovarian and in the experiment on HCT-116 colon was above 100 µM each time.
With `COC(=O)[C@H](C)[C@H]1CC[C@@](C)([C@H]2CC3C(C)(C)[C@H]4CCC(C)=C[C@H]4C[C@@]3(C)O2)OO1` (some centres not stated), the TGI in the experiment on LOX IMVI melanoma amounted to 3.5 µM; with HCT-15 colon it was 24.2 µM; in the experiment with HL-60(TB) leukemia it was 5.57 µM; in the experiment with EKVX NSCLC it was 27.6 µM; in the experiment on NCI-H226 lung, 28.9 µM; in the experiment on UACC-257 melanoma, 27.5 µM. Besides, the results for the TGI in the experiment on SK-OV-3 ovarian, with OVCAR-4 ovarian and in the experiment with HCT-116 colon were 56.6 µM, 30.1 µM and 22.3 µM, respectively.
For the compound `CCC12CCC(O)C1N(C)CCC2Sc1ccccc1` (configuration not stated), the TGI with LOX IMVI melanoma is above 100 µM; with HCT-15 colon, above 100 µM; in the experiment with HL-60(TB) leukemia, 56.5 µM; in the experiment with EKVX NSCLC, above 100 µM; with NCI-H226 lung, above 100 µM; in the experiment on UACC-257 melanoma, above 100 µM. For the same compound, the TGI with SK-OV-3 ovarian, in the experiment on OVCAR-4 ovarian and with HCT-116 colon was above 100 µM in each case.
For the compound `O=C(O)C(Cc1ccccc1-c1ccccc1)C(=O)O`, the TGI in the experiment with LOX IMVI melanoma, with MDA-MB-231 breast, in the experiment with HCT-15 colon, in the experiment with EKVX NSCLC, with NCI-H226 lung and with UACC-257 melanoma was above 100 µM throughout. Also, the TGI in the experiment with OVCAR-4 ovarian and in the experiment with HCT-116 colon was above 100 µM each time.
In the case of `N.N.NCCCCN.O=C([O-])CC(=O)[O-].O=C([O-])CC(=O)[O-].[Pt+4].[Pt+4]`, the GI50 in the experiment on LOX IMVI melanoma was 78.3 µM; in the experiment with HCT-15 colon, above 100 µM; in the experiment on HL-60(TB) leukemia it was 11.5 µM; in the experiment with EKVX NSCLC it was above 100 µM; with NCI-H226 lung it was above 100 µM; with UACC-257 melanoma, above 100 µM. Further, the GI50 with SK-OV-3 ovarian, in the experiment on OVCAR-4 ovarian and in the experiment on HCT-116 colon was above 100 µM each time. In addition, the TGI in the experiment on LOX IMVI melanoma, in the experiment on HCT-15 colon, in the experiment on HL-60(TB) leukemia, in the experiment with EKVX NSCLC, in the experiment on NCI-H226 lung and in the experiment with UACC-257 melanoma was above 100 µM throughout. Also, the TGI in the experiment on SK-OV-3 ovarian, in the experiment on OVCAR-4 ovarian and in the experiment on HCT-116 colon was above 100 µM each time.
For the compound `CC1(c2ccccc2)CC12C(=O)NC(=O)NC2=O` (configuration not stated), the TGI with LOX IMVI melanoma, in the experiment with HCT-15 colon, in the experiment on HL-60(TB) leukemia, in the experiment with EKVX NSCLC, with NCI-H226 lung and with UACC-257 melanoma was above 100 µM in each case. Moreover, the TGI in the experiment with SK-OV-3 ovarian, in the experiment on OVCAR-4 ovarian and in the experiment on HCT-116 colon was above 100 µM throughout.
In the case of `CCCCCCC(O)C/C=C/CCCCCC/C(C(=O)OC)=C(/O)C(=O)OCC` (configuration not stated), the TGI in the experiment with LOX IMVI melanoma, in the experiment on HCT-15 colon, with HL-60(TB) leukemia, with EKVX NSCLC, in the experiment with NCI-H226 lung and with UACC-257 melanoma was above 100 µM in each case. Besides, the TGI in the experiment with SK-OV-3 ovarian, in the experiment with OVCAR-4 ovarian and with HCT-116 colon was above 100 µM throughout.
On to `COC(=O)C1Cc2c(n(C)c3ccccc23)C(c2ccccc2)N1` (configuration not stated), for which the TGI was above 100 µM in the experiment on LOX IMVI melanoma; above 100 µM with HCT-15 colon; 48 µM in the experiment with HL-60(TB) leukemia; above 100 µM in the experiment with EKVX NSCLC; above 100 µM in the experiment with NCI-H226 lung; 32 µM in the experiment on UACC-257 melanoma. For the same compound, the TGI in the experiment with SK-OV-3 ovarian, with OVCAR-4 ovarian and in the experiment on HCT-116 colon was above 100 µM in each case.

The values are drawn from PubChem BioAssay (NCI).
